Earlier results as cited in US20240082160A1, “AMLODIPINE DRY SUSPENSION AND PREPARATION METHOD THEREFOR” (GUANGZHOU APICHOPE PHARMACEUTICAL CO., LTD., priority 2021, published 2024).

solubility in water: slightly soluble in water
Compound: CCOC(=O)C1=C(COCCN)NC(C)=C(C(=O)OC)C1c1ccccc1Cl (stereo not shown) [amlodipine besylate]
